Activity calls are given as the source filed them. How the calls were made is not given here.
System: CCRIS mutagenicity, Ames/micronucleus/aberration tests
Experiment: CCRIS mutagenicity studies
[1] = Test System: AMES SALMONELLA TYPHIMURIUM, Strain/Indicator: TA98, Metabolic Activation: NONE
[2] = Test System: AMES SALMONELLA TYPHIMURIUM, Strain/Indicator: TA98, Metabolic Activation: NONE, Method: PREINCUBATION
[3] = Test System: AMES SALMONELLA TYPHIMURIUM, Strain/Indicator: TA100, Metabolic Activation: NONE
[4] = Test System: AMES SALMONELLA TYPHIMURIUM, Strain/Indicator: TA100, Metabolic Activation: NONE, Method: PREINCUBATION

Structure (SMILES): CC(=O)Nc1ccc(-c2ccc(NC(C)=O)cc2)cc1
- mutagenic call (Test System: AMES SALMONELLA TYPHIMURIUM, Strain/Indicator: TA1538, Metabolic Activation: GUINEA PIG, LIVER, HEPATOCYTES, Method: PREINCUBATION): active; positive
- mutagenic call (Test System: AMES SALMONELLA TYPHIMURIUM, Strain/Indicator: TA1538, Metabolic Activation: GUINEA PIG, LIVER, S-9, ACETYL-COA (0.1 OR 1 MILLIMOLAR), Method: PREINCUBATION): active; positive
- mutagenic call (Test System: AMES SALMONELLA TYPHIMURIUM, Strain/Indicator: TA1538, Metabolic Activation: GUINEA PIG, LIVER, S-9, Method: PREINCUBATION): active; positive
- mutagenic call (Test System: AMES SALMONELLA TYPHIMURIUM, Strain/Indicator: TA1538, Metabolic Activation: HAMSTER, LIVER, HEPATOCYTES, Method: PREINCUBATION): active; positive
- mutagenic call (Test System: AMES SALMONELLA TYPHIMURIUM, Strain/Indicator: TA1538, Metabolic Activation: HAMSTER, LIVER, S-9, ACETYL-COA (0.1 OR 1 MILLIMOLAR), Method: PREINCUBATION): active; positive
- mutagenic call (Test System: AMES SALMONELLA TYPHIMURIUM, Strain/Indicator: TA1538, Metabolic Activation: HAMSTER, LIVER, S-9, Method: PREINCUBATION): active; positive
- mutagenic call (Test System: AMES SALMONELLA TYPHIMURIUM, Strain/Indicator: TA1538, Metabolic Activation: RAT, LIVER, HEPATOCYTES, Method: PREINCUBATION): active; positive
- mutagenic call (Test System: AMES SALMONELLA TYPHIMURIUM, Strain/Indicator: TA1538, Metabolic Activation: RAT, LIVER, S-9, ACETYL-COA (0.1 OR 1 MILLIMOLAR), Method: PREINCUBATION): active; positive
- mutagenic call (Test System: AMES SALMONELLA TYPHIMURIUM, Strain/Indicator: TA1538, Metabolic Activation: RAT, LIVER, S-9, Method: PREINCUBATION): active; positive
- mutagenic call (Test System: Ames Salmonella typhimurium, Strain/Indicator: TA102, Metabolic Activation: None, Method: Preincubation): inactive; negative
- mutagenic call (Test System: Ames Salmonella typhimurium, Strain/Indicator: TA102, Metabolic Activation: Rat, liver, S-9, Aroclor 1254, 4%, Method: Preincubation): inactive; negative

Structure (SMILES): Cc1c2ccc(CO)cc2nc2c1ccc1ccccc12
- mutagenic call (Test System: AMES SALMONELLA TYPHIMURIUM, Strain/Indicator: TA100, Metabolic Activation: RAT, LIVER, S-9, AROCLOR 1254, Method: STANDARD PLATE): active; positive

Structure (SMILES): O=C(CCl)c1ccccc1
- mutagenic call (Test System: AMES SALMONELLA TYPHIMURIUM, Strain/Indicator: TA98, Metabolic Activation: HAMSTER, LIVER, S-9, AROCLOR 1254 (10%), Method: PREINCUBATION): inactive; negative
- mutagenic call [1]: inactive; negative
- mutagenic call [2]: inactive; negative
- mutagenic call (Test System: AMES SALMONELLA TYPHIMURIUM, Strain/Indicator: TA98, Metabolic Activation: RAT, LIVER, S-9, AROCLOR 1254 (10%), Method: PREINCUBATION): inactive; negative
- mutagenic call (Test System: AMES SALMONELLA TYPHIMURIUM, Strain/Indicator: TA98, Metabolic Activation: RAT, LIVER, S-9, PHENOBARBITONE AND BETA-NAPHTHOFLAVONE): inactive; negative
- mutagenic call (Test System: AMES SALMONELLA TYPHIMURIUM, Strain/Indicator: TA100, Metabolic Activation: HAMSTER, LIVER, S-9, AROCLOR 1254 (10%), Method: PREINCUBATION): inactive; negative
- mutagenic call [3]: inactive; negative
- mutagenic call [4]: inactive; negative
- mutagenic call (Test System: AMES SALMONELLA TYPHIMURIUM, Strain/Indicator: TA100, Metabolic Activation: RAT, LIVER, S-9, AROCLOR 1254 (10%), Method: PREINCUBATION): inactive; negative
- mutagenic call (Test System: AMES SALMONELLA TYPHIMURIUM, Strain/Indicator: TA100, Metabolic Activation: RAT, LIVER, S-9, PHENOBARBITONE AND BETA-NAPHTHOFLAVONE): inactive; negative
- mutagenic call (Test System: AMES SALMONELLA TYPHIMURIUM, Strain/Indicator: TA1535, Metabolic Activation: HAMSTER, LIVER, S-9, AROCLOR 1254 (10%), Method: PREINCUBATION): inactive; negative
- mutagenic call (Test System: AMES SALMONELLA TYPHIMURIUM, Strain/Indicator: TA1535, Metabolic Activation: NONE, Method: PREINCUBATION): inactive; negative
- mutagenic call (Test System: AMES SALMONELLA TYPHIMURIUM, Strain/Indicator: TA1535, Metabolic Activation: RAT, LIVER, S-9, AROCLOR 1254 (10%), Method: PREINCUBATION): inactive; negative
- mutagenic call (Test System: AMES SALMONELLA TYPHIMURIUM, Strain/Indicator: TA1537, Metabolic Activation: HAMSTER, LIVER, S-9, AROCLOR 1254 (10%), Method: PREINCUBATION): inactive; negative
- mutagenic call (Test System: AMES SALMONELLA TYPHIMURIUM, Strain/Indicator: TA1537, Metabolic Activation: NONE, Method: PREINCUBATION): inactive; negative
- mutagenic call (Test System: AMES SALMONELLA TYPHIMURIUM, Strain/Indicator: TA1537, Metabolic Activation: RAT, LIVER, S-9, AROCLOR 1254 (10%), Method: PREINCUBATION): inactive; negative
- mutagenic call (Test System: AMES SALMONELLA TYPHIMURIUM, Strain/Indicator: TA1538, Metabolic Activation: NONE): inactive; negative
- mutagenic call (Test System: AMES SALMONELLA TYPHIMURIUM, Strain/Indicator: TA1538, Metabolic Activation: RAT, LIVER, S-9, PHENOBARBITONE AND BETA-NAPHTHOFLAVONE): inactive; negative

Structure (SMILES): Cc1cc(S(=O)(=O)O)c2c(C)ccc(C(C)C)cc1-2
- mutagenic call [1]: inactive; negative
- mutagenic call (Test System: AMES SALMONELLA TYPHIMURIUM, Strain/Indicator: TA98, Metabolic Activation: S-9): inactive; negative
- mutagenic call [3]: inactive; negative
- mutagenic call (Test System: AMES SALMONELLA TYPHIMURIUM, Strain/Indicator: TA100, Metabolic Activation: S-9): inactive; negative
- mutagenic call (Test System: AMES SALMONELLA TYPHIMURIUM, Strain/Indicator: TA1535, Metabolic Activation: NONE): inactive; negative
- mutagenic call (Test System: AMES SALMONELLA TYPHIMURIUM, Strain/Indicator: TA1535, Metabolic Activation: S-9): inactive; negative
- mutagenic call (Test System: AMES SALMONELLA TYPHIMURIUM, Strain/Indicator: TA1537, Metabolic Activation: NONE): inactive; negative
- mutagenic call (Test System: AMES SALMONELLA TYPHIMURIUM, Strain/Indicator: TA1537, Metabolic Activation: S-9): inactive; negative
- mutagenic call (Test System: E. COLI, Strain/Indicator: WP2 UVRA, Metabolic Activation: NONE): inactive; negative
- mutagenic call (Test System: E. COLI, Strain/Indicator: WP2 UVRA, Metabolic Activation: S-9): inactive; negative

Structure (SMILES): N[C@@H](CCC(=O)N[C@@H](CSC(=O)NCCCl)C(=O)NCC(=O)O)C(=O)O
- mutagenic call (Test System: AMES SALMONELLA TYPHIMURIUM, Strain/Indicator: TA1535, Metabolic Activation: NONE, Method: STANDARD PLATE): active; positive

Structure (SMILES): O=C1c2ccccc2C(=O)c2c1cc(O[C@@H]1O[C@H](CO[C@@H]3OC[C@@H](O)[C@H](O)[C@H]3O)[C@@H](O)[C@H](O)[C@H]1O)c(CO)c2O
- mutagenic call [2]: inactive; negative
- mutagenic call (Test System: AMES SALMONELLA TYPHIMURIUM, Strain/Indicator: TA98, Metabolic Activation: RAT, LIVER, S-9, PCB, Method: PREINCUBATION): inactive; negative
- mutagenic call [4]: active; positive
- mutagenic call (Test System: AMES SALMONELLA TYPHIMURIUM, Strain/Indicator: TA100, Metabolic Activation: RAT, LIVER, S-9, PCB, Method: PREINCUBATION): inactive; negative
- mutagenic call (Test System: UDS RODENT HEPATOCYTES, Strain/Indicator: THY INCORP, Metabolic Activation: NONE): active; positive
